Read-outs that look alike come from different tables or passages of the source.
Legend:
LTD4 receptors = target: T1, LTD4 receptors (Cavia porcellus, UniProt Q2NNR5); test: Antagonism of LTD4 (guinea pig ileum and trachea, pA2); conditions: *Estimated; negative log of KB; antagonist 30 minute incubation
T1 construct: A section of terminal ileum was removed, the lumen cleaned, and the tissue divided into 2.5 cm segments; from tissue; host or cells: ileum and trachea of guinea pig (ileum: male Hartley)
T1 sequence (Q2NNR5 1-340): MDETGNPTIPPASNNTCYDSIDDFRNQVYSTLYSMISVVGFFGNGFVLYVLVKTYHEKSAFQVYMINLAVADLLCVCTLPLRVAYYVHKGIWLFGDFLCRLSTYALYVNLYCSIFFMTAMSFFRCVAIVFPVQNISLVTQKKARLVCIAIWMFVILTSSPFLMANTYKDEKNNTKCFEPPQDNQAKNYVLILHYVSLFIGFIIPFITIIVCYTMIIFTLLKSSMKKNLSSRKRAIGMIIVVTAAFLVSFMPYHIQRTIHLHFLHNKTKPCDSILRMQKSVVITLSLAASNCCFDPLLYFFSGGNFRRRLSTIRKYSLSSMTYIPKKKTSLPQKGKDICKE
Description: Male, Hartley guinea pigs weighing 200-450 grams were killed by decapitation. A section of terminal ileum was removed, the lumen cleaned, and the tissue divided into 2.5 cm segments. The ilea were mounted in 10 ml tissue baths containing Krebs-bicarbonate solution of the following composition in mmoles/liter: KCl, 4.6; CaCl2 ·2H2 O, 1.2; KH2 PO4, 1.2; MgSO4 ·7H2O, 1.2; NaCl, 118.2; NaHCO3, 24.8; and dextrose, 10.0. The bath fluid was maintained at 37° C. and aerated with 95 percent oxygen and 5 percent CO2 In addition, the buffer contained 1×10^-6 M atropine to reduce ileal spontaneous activity. Isometric measurements were made with a Grass FT03C. force-displacement transducer and recorded on a Grass polygraph as change in grams of force. A passive force of 0.5 g was applied to the tissues. After an appropriate equilibration period, single submaximal control responses to pure LTD4 were obtained. Following a five minute exposure of the ileum to an experimental drug, the control concentration of LTD4 was added to the tissue bath. The response of the ileum to LTD4 in the presence of the drug was compared to the response in the absence of the drug.
A more detailed analysis of LTD4 antagonism was then made. In these experiments, cumulative concentration-response curves were obtained to LTD4 in guinea pig ileum and trachea. This was followed by a 30 minute incubation with various concentrations of the experimental drug. The concentration response curve to LTD4 was then repeated in the presence of the antagonist. Only one concentration of antagonist was used on a single tissue. KB values were calculated by the method of Furchgott [Ann. N.Y. Acad. Sci., 139, 553 (1967)] using the following equation. [formula]
Dose ratio refers to the concentration of agonist required to elicit 50 percent of the maximal response ED50) in the presence of the antagonist divided by the ED50 in the absence of the antagonist.

[1] = target: T2, specific receptor on the membrane of human neutrophils (leukotriene B4) (Homo sapiens, UniProt Q15722); test: Inhibition of Binding of ^3 H-LTB4 to Peripheral Human Neutrophils; conditions: read-out: LTB4 Binding Inhibition
T2 construct: Freshly-prepared buffy coat layers from two individuals were obtained from a local blood donor center; endogenous in cells; host or cells: intact human peripheral blood neutrophils from buffy coats of two donors
Description: Cells used in the assay were isolated by standard techniques of centrifugation on Ficoll-Hypaque, dextran 70 sedimentation and hypotonic lysis. The following procedure was used. Freshly-prepared buffy coat layers from two individuals were obtained from a local blood donor center. The cells were mixed and diluted to 484 ml with phosphate buffered saline containing heparin (10 units/ml) and heat-inactivated calf serum (5%). This was divided into 20 ml aliquots and the aliquots layered on top of Ficoll-Paque (12 ml). The material was then centrifuged at 500 g for 40 minutes at room temperature. The resulting upper layer of platelets and mononuclear cells was discarded. The lower layer containing erythrocytes and neutrophils was retained. Buffer was added (1 ml per 4 ml of lower layer) and the suspension mixed. For each milliliter of this mixture, 0.33 ml of 6% Macrodex was added. After stirring, the cells were allowed to sediment for 1 hour at 37° C. The resulting erythrocyte pellet was discarded and the neutrophil enriched supernatant fluid centrifuged at 500 g for 10 minutes at 4° C. Erythrocytes still present in this cell pellet were lysed by incubating the cells with 5-8 ml ice-cold distilled water for 30-45 seconds. Subsequently, the volume was made up to 50 ml by addition of ice-cold buffer and the cells resuspended. The suspension was then centrifuged at 300 g for 10 minutes at 4° C. The cells were finally resuspended at a cell density of 2×10^7 cells/ml in the assay buffer This buffer consisted of Hanks' balanced salt solution and 0.1% ovalbumin (pH 7.3).
The amount of bound ^3 H-LTB4 was then measured and compared with the amount bound in the absence of test compound. The assay was carried out in microcentrifuge tubes by adding first 10 μl test compound dissolved in DMSO, followed by adding 20 μl ^3 H-LTB4 diluted in assay buffer, and finally adding 500 μl of the cell suspension. At the end of the 10 minutes incubation, 300 μl of a mixture of dibutyl and dinonyl phthalate (7:2) were added and the tubes centrifuged for 2 minutes in a microcentrifuge. The radioactivity bound to the cell pellet was measured by scintillation spectroscopy. Appropriate corrections for nonspecific bonding of ^3 H-LTB4 were made.

[2] = tested on: LTB4 induced cell aggregation (neutrophils); test: LTB4 Induced Aggregation Assay (neutrophils); assay type: cell-based, guinea pig; conditions: Cavia porcellus, Neutrophil; for inhibition at 10 µM: drug concentration 10^-5 M; for inhibition at 1 µM: drug concentration 10^-6 M; for inhibition at 0.1 µM: drug concentration 10^-7 M
Description: Neutrophils were elicited by intraperitoneally injecting 20 ml of Dulbecco's calcium and magnesium deficient phosphate buffered saline (PBS) containing 2% oyster glycogen into each of two male Hartley guinea pigs. Eighteen hours later, cells accumulating in the peritoneal cavity were harvested by washing the peritoneum with approximately 100 ml of PBS containing 10 units/ml of heparin. The cells were centrifuged at 200 g for 8 min. and the supernatant fluid discarded. Erythrocytes present in the pellet were lyzed by vigorous agitation of the cells in 9 ml of ice-cold distilled water for approximately 30 seconds. Physiological osmolarity was restored by adding 1.5 ml of 0.6 M KCl. Twelve milliliters of PBS were added and the resuspended cells centrifuged at 200 g for 8 min. at 4°. The pellet was resuspended in 5 ml PBS. The cell concentration was determined and additional buffer added to make the concentration […]; cells per ml.
The aggregation assay was carried out by measuring the amount of LTB4 induced cell aggregation with a Payton single channel aggregometer, model 300B. The apparatus was calibrated by placing a cuvette containing the cell suspension in it and adjusting the zero knob so that the recorder pen rested at 1 mV. A cuvette containing 20% less cells was then inserted into the aggregometer and the output knob adjusted so that the recorder pen rested at 9 mV. With these settings an 8 mV change causes the recorder pen to move 200 mm. When conducting an assay, 0.5 ml of cell suspension (5×10^6 cells) was added to each cuvette. Five microliters of a solution of test compound were then added. Most compounds were initially dissolved in DMSO at 1×10^-2 M and then diluted appropriately with PBS so that the test compound concentration was 1×10^-5 to 1×10^-7 M and the test DMSO concentration was 0.1% or less. A few of the more water insoluble compounds were first dissolved in DMSO at 1 to 6×10^-3 M and then diluted appropriately with PBS. The test concentration of DMSO was never higher than 1%. After a 2 minute equilibration period of cells and test compound, 5 μl of a solution containing CaCl2 (100 mM) and MgCl2 (50 mM) were added. One minute later, 5 μ l of PBS containing LTB4 (3×10^-7 M) were added. The change occurring in the amount of light transmitted during the subsequent minute was measured. […] During a typical experiment, several measurements of the amount of aggregation induced by LTB4 were made and an average value determined. The effect of a test compound on this aggregation was determined by the following formula: [formula]

[3] = drug concentration 10^-5 M, 0.1-0.2 nM ^3 H-LTB4, 10 minutes at 4° C
[4] = drug concentration 10^-6 M, 0.1-0.2 nM ^3 H-LTB4, 10 minutes at 4° C
[5] = drug concentration 10^-7 M, 0.1-0.2 nM ^3 H-LTB4, 10 minutes at 4° C

T2 sequence (Q15722 whole entry): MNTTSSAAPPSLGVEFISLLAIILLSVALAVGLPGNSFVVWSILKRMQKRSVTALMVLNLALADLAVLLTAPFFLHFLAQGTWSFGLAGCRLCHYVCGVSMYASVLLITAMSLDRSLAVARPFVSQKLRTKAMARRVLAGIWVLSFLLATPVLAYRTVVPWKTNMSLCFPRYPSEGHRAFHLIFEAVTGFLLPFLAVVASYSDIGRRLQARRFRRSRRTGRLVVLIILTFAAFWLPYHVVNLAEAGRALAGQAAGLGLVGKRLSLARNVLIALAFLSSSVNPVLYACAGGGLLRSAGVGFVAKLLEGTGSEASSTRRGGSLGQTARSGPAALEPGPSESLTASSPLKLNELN

| SMILES | Kb (LTD4 receptors) [µM] | inhibition at 10 µM [1, 3] [%] | inhibition at 1 µM [1, 4] [%] | inhibition at 10 µM [2] [%] | inhibition at 1 µM [2] [%] | inhibition at 0.1 µM [1, 5] [%] | inhibition at 0.1 µM [2] [%] | inhibition at 10 µM [1] [%] | inhibition at 0.1 µM [1] [%] | inhibition at 1 µM [1] [%] |
| --- | --- | --- | --- | --- | --- | --- | --- | --- | --- | --- |
| CCCCCCCCCCOc1ccc(C(=O)c2cccc(C(=O)OCC)c2)cc1CCCC(=O)OCC [Example 7, 2-(Decyloxy)-5-[3-(ethoxycarbonyl)benzoyl]benzenebutanoic acid, ethyl ester] | 0.158 |  |  |  |  |  |  |  |  |  |
| CCCCCCCCCCOc1ccc(C(=O)c2cccc(C(=O)O)c2)c(CC(=O)O)c1 [Example 21, 2-(3-Carboxybenzoyl)-5-(decyloxy)benzeneacetic acid] | 1.41 | 74 | 23 |  |  |  |  |  |  |  |
| CCCCCCCCCCOc1ccc(C(=O)c2cccc(C(=O)O)c2)cc1CCCC(=O)O [Example 23, 5-(3-Carboxybenzoyl)-2-(decyloxy)benzenebutanoic acid] |  | 87 | 52 | 92 | 46 | 4 |  |  |  |  |
| CCCCCCCCCCOc1ccc(C(=O)c2cccc(-c3nnn[nH]3)c2)cc1CC(=O)O [Example 24, 2-(Decyloxy)-5-[3-(1H-tetrazol-5-yl)benzoyl]benzeneacetic acid] | 0.398 | 93 | 28 |  |  |  |  |  |  |  |
| CCCCCCCCCCOc1ccc(C(=O)c2cccc(Cc3nnn[nH]3)c2)cc1CCC(=O)O [Example 25, 2-(Decyloxy)-5-[3-(1H-tetrazol-5-ylmethyl)benzoyl]benzenepropanoic acid] | 0.631 |  |  |  |  |  |  |  |  |  |
| CCCCCCCCCCOc1ccc(C(=O)Cc2ccccc2C(=O)O)cc1CCC(=O)O [Example 34, 5-[(2-Carboxyphenyl)acetyl]-2-(decyloxy)benzenepropanoic acid] | 1.91 |  |  |  |  |  |  |  |  |  |
| CCCCCCCCCCOc1ccc(C(O)c2cccc(C(=O)O)c2)cc1CCC(=O)O (stereo not drawn) [Example 46, 5-[(3--Carboxyphenyl)hydroxymethyl]-2-(decyloxy)benzenepropanoic acid] |  | 91 | 55 |  | 73 | 13 | 7 |  |  |  |
| CCCCCCCCCCOc1ccc(C(O)c2ccc(C(=O)O)cc2)cc1CC(=O)O (stereo not drawn) [Example 47, 5-[(4-Carboxyphenyl)hydroxymethyl]-2-(decyloxy)benzeneacetic acid] |  | 59 | 2 | 80 | 50 |  | 2 |  |  |  |
| C=C(c1cccc(C(=O)O)c1)c1ccc(OCCCCCCCCCC)c(CCC(=O)O)c1 [Example 54, 5-[1-(3-Carboxyphenyl)ethenyl]-2-(decyloxy)benzenepropanoic acid] |  | 71 | 37 |  | 88 | -3 | 12 |  |  |  |
| CCOC(=O)CCc1cc(C(=O)c2cccc(C(=O)OCC)c2)ccc1OCCCCCCc1ccc(Cl)cc1 [Example 66, 2-{[6-(4-Chlorophenyl)hexyl]oxy}-5-[3-(ethoxycarbonyl)benzoyl]benzenepropanoic acid, ethyl ester] | 0.575 |  |  |  |  |  |  |  |  |  |
| O=C(O)CCc1cc(C(=O)c2cccc(C(=O)O)c2)ccc1OCCCCCCc1ccccc1 [Example 75, 5-(3-Carboxybenzoyl)-2-[6-(phenylhexyl)-oxy]benzenepropanoic acid] |  |  | 82 | 93 | 69 | 36 | 15 | 97 |  |  |
| COc1ccc(C=CCCCCOc2ccc(C(=O)c3cccc(C(=O)O)c3)cc2CCC(=O)O)cc1 [Example 79, 5-(3-Carboxybenzoyl)-2-{[6-(4-methoxyphenyl)-5-hexenyl]oxy}benzenepropanoic acid] |  |  |  | 92 | 87 |  | 46 | 100 | 92 | 97 |
| O=C(O)CCc1cc(C(=O)c2cccc(C(=O)O)c2)ccc1OCCCCCCc1ccc(Cl)cc1 [Example 81, 2-{[6-(4-Chlorophenyl)hexyl]oxy}-5-(3-carboxybenzoyl)benzenepropanoic acid] |  | 106 | 91 | 76 | 63 | 42 | 8 |  |  |  |
| C[S+]([O-])c1ccc(C=CCCCCOc2ccc(C(=O)c3cccc(C(=O)O)c3)cc2CCC(=O)O)cc1 (stereo not drawn) [Example 90, 5-(3-Carboxybenzoyl)-2-{[6-(4-methylsulfinylphenyl)-5-hexenyl]oxy}benzenepropanoic acid] |  | 98 | 96 | 85 | 79 | 90 | 9 |  |  |  |

From patent publication US5171882A, “Leukotriene antagonists” (Eli Lilly and Company, priority 1990, dated 1992)
